Test results as given in ChEMBL document CHEMBL1149838, “Usimines A-C, bioactive usnic acid derivatives from the Antarctic lichen Stereocaulon alpinum” (J Nat Prod, 2008).

Target: T1, Tyrosine-protein phosphatase non-receptor type 1 (Homo sapiens, UniProt P18031)
T1 sequence (P18031 whole entry): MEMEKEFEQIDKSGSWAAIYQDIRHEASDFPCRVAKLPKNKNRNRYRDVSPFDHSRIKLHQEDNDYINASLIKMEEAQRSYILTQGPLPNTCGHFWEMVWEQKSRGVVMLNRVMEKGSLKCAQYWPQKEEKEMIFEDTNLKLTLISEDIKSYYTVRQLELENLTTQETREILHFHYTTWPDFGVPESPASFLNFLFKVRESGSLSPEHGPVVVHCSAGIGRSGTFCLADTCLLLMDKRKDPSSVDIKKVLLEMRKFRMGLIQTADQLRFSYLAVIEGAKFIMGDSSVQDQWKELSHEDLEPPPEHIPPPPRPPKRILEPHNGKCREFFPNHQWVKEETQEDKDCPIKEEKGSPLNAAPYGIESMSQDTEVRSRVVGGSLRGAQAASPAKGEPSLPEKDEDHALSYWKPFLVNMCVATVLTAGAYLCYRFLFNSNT
Test: Inhibition of human recombinant PTP1B

IC50	Compound
23.2 µM	CC(=O)c1c(O)c(C)c(O)c2c1OC1=CC(O)=C(/C(C)=N\[C@@H](CCC(=O)O)C(=O)O)C(=O)[C@@]12C [USIMINE C]
15 µM	COC(=O)CC[C@H](/N=C(\C)C1=C(O)C=C2Oc3c(C(C)=O)c(O)c(C)c(O)c3[C@@]2(C)C1=O)C(=O)O [USIMINE A]
27.7 µM	CC(=O)c1c(O)c(C)c(O)c2c1OC1=CC(O)=C(/C(C)=N/[C@@H](CCC(=O)O)C(=O)O)C(=O)[C@@]12C [USIMINE B]

Compound	IC50
CC(=O)C1=C(O)C=C2Oc3c(C(C)=O)c(O)c(C)c(O)c3[C@@]2(C)C1=O [(+)-USNIC ACID]	16.4 µM
